Experiment: Phase I safety: adverse events, DLT, MTD, RP2D
Format: in vivo, human
[1] = 15mg 21/28, 4 patients, all grades
[2] = 30mg 21/28, 3 patients, all grades
[3] = 45mg 21/28, 4 patients, all grades
[4] = 60mg 21/28, 4 patients, all grades
[5] = 80mg 21/28, 3 patients, all grades
[6] = 100mg 21/28, 5 patients, all grades
[7] = 130mg 21/28, 3 patients, all grades
[8] = 130mg 21/28, 3 patients, grade ≥3
[9] = 180mg 21/28, 3 patients, all grades
[10] = 245mg 21/28, 3 patients, all grades
[11] = 330mg 21/28, 7 patients, all grades

SMILES: CS(=O)(=O)N1CCN(Cc2cc3nc(-c4cccc5[nH]ncc45)nc(N4CCOCC4)c3s2)CC1 [pictilisib, 2-(1H-indazol-4-yl)-6-(4-methanesulfonyl-piperazin-1-ylmethyl)-4-morpholin-4-yl-t hieno[3,2-d]pyrimidine]
- Any treatment-related adverse event, no. of patients [1]: 2
- Decreased appetite, no. of patients with treatment-related AE [1]: 0
- Diarrhea, no. of patients with treatment-related AE [1]: 0
- Dysgeusia, no. of patients with treatment-related AE [1]: 1
- Fatigue, no. of patients with treatment-related AE [1]: 0
- Nausea, no. of patients with treatment-related AE [1]: 1
- Rash (all rash preferred terms), no. of patients with treatment-related AE [1]: 0
- Vomiting, no. of patients with treatment-related AE [1]: 0
- Xeroderma, no. of patients with treatment-related AE [1]: 0
- Any treatment-related adverse event, no. of patients [2]: 1
- Decreased appetite, no. of patients with treatment-related AE [2]: 0
- Diarrhea, no. of patients with treatment-related AE [2]: 0
- Dysgeusia, no. of patients with treatment-related AE [2]: 0
- Fatigue, no. of patients with treatment-related AE [2]: 0
- Nausea, no. of patients with treatment-related AE [2]: 0
- Rash (all rash preferred terms), no. of patients with treatment-related AE [2]: 0
- Vomiting, no. of patients with treatment-related AE [2]: 0
- Xeroderma, no. of patients with treatment-related AE [2]: 0
- Any treatment-related adverse event, no. of patients [3]: 2
- Decreased appetite, no. of patients with treatment-related AE [3]: 0
- Diarrhea, no. of patients with treatment-related AE [3]: 2
- Dysgeusia, no. of patients with treatment-related AE [3]: 1
- Fatigue, no. of patients with treatment-related AE [3]: 0
- Nausea, no. of patients with treatment-related AE [3]: 0
- Rash (all rash preferred terms), no. of patients with treatment-related AE [3]: 0
- Vomiting, no. of patients with treatment-related AE [3]: 0
- Xeroderma, no. of patients with treatment-related AE [3]: 0
- Any treatment-related adverse event, no. of patients [4]: 2
- Decreased appetite, no. of patients with treatment-related AE [4]: 0
- Diarrhea, no. of patients with treatment-related AE [4]: 1
- Dysgeusia, no. of patients with treatment-related AE [4]: 0
- Fatigue, no. of patients with treatment-related AE [4]: 0
- Nausea, no. of patients with treatment-related AE [4]: 2
- Rash (all rash preferred terms), no. of patients with treatment-related AE [4]: 0
- Vomiting, no. of patients with treatment-related AE [4]: 2
- Xeroderma, no. of patients with treatment-related AE [4]: 0
- Any treatment-related adverse event, no. of patients [5]: 3
- Decreased appetite, no. of patients with treatment-related AE [5]: 0
- Diarrhea, no. of patients with treatment-related AE [5]: 1
- Dysgeusia, no. of patients with treatment-related AE [5]: 1
- Fatigue, no. of patients with treatment-related AE [5]: 2
- Nausea, no. of patients with treatment-related AE [5]: 1
- Rash (all rash preferred terms), no. of patients with treatment-related AE [5]: 0
- Vomiting, no. of patients with treatment-related AE [5]: 1
- Xeroderma, no. of patients with treatment-related AE [5]: 0
- Any treatment-related adverse event, no. of patients [6]: 3
- Decreased appetite, no. of patients with treatment-related AE [6]: 0
- Diarrhea, no. of patients with treatment-related AE [6]: 1
- Dysgeusia, no. of patients with treatment-related AE [6]: 0
- Fatigue, no. of patients with treatment-related AE [6]: 1
- Nausea, no. of patients with treatment-related AE [6]: 3
- Rash (all rash preferred terms), no. of patients with treatment-related AE [6]: 0
- Vomiting, no. of patients with treatment-related AE [6]: 0
- Xeroderma, no. of patients with treatment-related AE [6]: 0
- Patients with grade 4 hyperglycemia (130mg): 1
- Any treatment-related adverse event, no. of patients [7]: 1
- Decreased appetite, no. of patients with treatment-related AE [7]: 0
- Diarrhea, no. of patients with treatment-related AE [7]: 0
- Dysgeusia, no. of patients with treatment-related AE [7]: 0
- Fatigue, no. of patients with treatment-related AE [7]: 0
- Nausea, no. of patients with treatment-related AE [7]: 0
- Rash (all rash preferred terms), no. of patients with treatment-related AE [7]: 0
- Vomiting, no. of patients with treatment-related AE [7]: 0
- Xeroderma, no. of patients with treatment-related AE [7]: 0
- Any treatment-related adverse event, no. of patients [8]: 1
- Decreased appetite, no. of patients with treatment-related AE [8]: 0
- Diarrhea, no. of patients with treatment-related AE [8]: 0
- Dysgeusia, no. of patients with treatment-related AE [8]: 0
- Fatigue, no. of patients with treatment-related AE [8]: 0
- Nausea, no. of patients with treatment-related AE [8]: 0
- Rash (all rash preferred terms), no. of patients with treatment-related AE [8]: 0
- Vomiting, no. of patients with treatment-related AE [8]: 0
- Xeroderma, no. of patients with treatment-related AE [8]: 0
- Any treatment-related adverse event, no. of patients [9]: 2
- Decreased appetite, no. of patients with treatment-related AE [9]: 1
- Diarrhea, no. of patients with treatment-related AE [9]: 1
- Dysgeusia, no. of patients with treatment-related AE [9]: 1
- Fatigue, no. of patients with treatment-related AE [9]: 1
- Nausea, no. of patients with treatment-related AE [9]: 0
- Rash (all rash preferred terms), no. of patients with treatment-related AE [9]: 1
- Vomiting, no. of patients with treatment-related AE [9]: 0
- Xeroderma, no. of patients with treatment-related AE [9]: 0
- Any treatment-related adverse event, no. of patients [10]: 3
- Decreased appetite, no. of patients with treatment-related AE [10]: 1
- Diarrhea, no. of patients with treatment-related AE [10]: 2
- Dysgeusia, no. of patients with treatment-related AE [10]: 0
- Fatigue, no. of patients with treatment-related AE [10]: 1
- Nausea, no. of patients with treatment-related AE [10]: 1
- Rash (all rash preferred terms), no. of patients with treatment-related AE [10]: 0
- Vomiting, no. of patients with treatment-related AE [10]: 0
- Xeroderma, no. of patients with treatment-related AE [10]: 1
- Any treatment-related adverse event, no. of patients [11]: 7
- Decreased appetite, no. of patients with treatment-related AE [11]: 2
- Diarrhea, no. of patients with treatment-related AE [11]: 3
- Dysgeusia, no. of patients with treatment-related AE [11]: 1
- Fatigue, no. of patients with treatment-related AE [11]: 4
- Nausea, no. of patients with treatment-related AE [11]: 4
- Rash (all rash preferred terms), no. of patients with treatment-related AE [11]: 4
- Vomiting, no. of patients with treatment-related AE [11]: 3
- Xeroderma, no. of patients with treatment-related AE [11]: 2

— article PMC4287394 (Clinical cancer research : an official journal of the …, 2014)
